{
  "source": "patent EP0947515A1",
  "about": "“NOVEL NAPHTHYRIDINE DERIVATIVES” (SUMITOMO PHARMACEUTICALS COMPANY, LIMITED, priority 1996, dated 1998)",
  "key": {"ACAT [1]": {"molecular_target": "T1, ACAT (Rattus norvegicus, UniProt O70536)", "T1 construct": "The rat peritoneal-derived macrophage was prepared; endogenous in cells; host or cells: rat peritoneal macrophages (primary)", "T1 sequence (O70536 1-545)": "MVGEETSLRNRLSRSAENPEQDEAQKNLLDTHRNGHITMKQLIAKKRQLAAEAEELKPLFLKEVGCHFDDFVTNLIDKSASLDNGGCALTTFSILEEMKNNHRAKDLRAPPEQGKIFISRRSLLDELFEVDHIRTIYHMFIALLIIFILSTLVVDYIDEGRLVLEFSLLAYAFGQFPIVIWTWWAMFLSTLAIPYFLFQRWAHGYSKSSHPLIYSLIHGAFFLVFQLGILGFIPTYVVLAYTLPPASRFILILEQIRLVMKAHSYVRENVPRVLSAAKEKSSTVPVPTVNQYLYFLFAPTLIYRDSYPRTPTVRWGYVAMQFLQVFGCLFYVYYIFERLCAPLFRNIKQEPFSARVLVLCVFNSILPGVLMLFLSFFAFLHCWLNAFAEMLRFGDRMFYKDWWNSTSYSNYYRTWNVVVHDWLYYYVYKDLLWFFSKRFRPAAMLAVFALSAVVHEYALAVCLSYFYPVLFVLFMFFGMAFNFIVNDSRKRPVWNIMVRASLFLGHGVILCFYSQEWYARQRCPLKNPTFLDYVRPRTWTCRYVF", "test": "Assay of ACAT inhibitory activity in the macrophage derived from rat peritoneal", "type": "cell-based", "conditions": "10^-7 M, radioactive oleic acid and exogenous cholesterol in liposome, read-out: ACAT inhibitory rate (%) 10^-7 M", "description": "2. Assay of ACAT inhibitory activity in the macrophage derived from rat peritoneal\nThe rat peritoneal-derived macrophage was prepared according to the method disclosed in the literature: Biochimica et Biophysica Acta, 1126, 73-80, 1992. The ACAT activity was determined by a modified method of the method disclosed in the above literature: Biochimica et Biophysica Acta, 1126, 73-80, 1992, i.e., using radioactive [9, 10-H]oleic acid and exogenous cholesterol contained in the liposome which was reconstituted according to the method disclosed in the literature: Biochimica et Biophysica Acta, 1213, 127-134, 1994, and calculated from the radioactivity of the labeled cholesterolyl oleate."}, "ACAT [2]": {"test_system": "ACAT", "test": "Assay of ACAT inhibitory activity in a specimen prepared from rabbit liver", "type": "biochemical, New Zealand white rabbit", "conditions": "enzyme specimen from liver of cholesterol-fed rabbit, [1-14C]oleoyl-CoA and endogenous cholesterol, 0.1 µM", "description": "1. Assay of ACAT inhibitory activity in a specimen prepared from rabbit liver\nAn enzyme specimen ACAT was prepared according to the method disclosed in the literature: J. Lipid. Research, 30, 681-690, 1989, from the liver of New Zealand white rabbit, which had been fed with 1 % cholesterol feed for one month. The ACAT activity was determined according to the method disclosed in the literature: J. Lipid Research, 24, 1127-1134, 1983, i.e., using radioactive [1-14C]oleoyl-CoA and endogenous cholesterol contained in the liver microsome, and calculated from the radioactivity of the labeled cholesterol oleate."}},
  "data": [
    {"smiles": "CCCCn1c(=O)c(NC(=O)Nc2c(C(C)C)cccc2C(C)C)c(-c2cccc(C#CCN3CCCC3)c2)c2cccnc21", "note": "[Example 90, N-[1-butyl-4-[3-{3-(1-pyrrolidinyl)-1-propynyl)phenyl}-1,2-dihydro-2-oxo-1,8-naphthyridin-3-yl)-N'-(2,6-diisopropylphenyl)urea]", "values": [
      {"measurement": "inhibition at 0.1 µM", "setting": "ACAT [1]", "result": 96, "unit": "%"},
      {"measurement": "ACAT inhibitory rate (%) 10^-7 M", "setting": "ACAT [2]", "result": 39, "unit": "%"}
    ]}
  ]
}
